Measured values taken from patent publication EP4085921A1 (priority 2021, dated 2022).

Legend:
[1] = as a function of the treatment time interval; Fig. 18

What does the source list for `CC[C@H](C)[C@H](NC(=O)[C@H](Cc1ccc(O)cc1)NC(=O)[C@@H](NC(=O)[C@H](CCCNC(=N)N)NC(=O)[C@@H](N)CC(=O)O)C(C)C)C(=O)N[C@@H](Cc1c[nH]cn1)C(=O)N1CCC[C@H]1C(=O)O` [Angiotensin-(1-7), Asp-Arg-Val-Tyr-Ile-His-Pro]?
side-effects in the clinical trial (5 to 25 mcg/kg/24h range as stated): very safe without severe Ang-(1-7)-related side-effects; hypotension as side-effect (Ang-(1-7) administration in the defined concentration range): not a side-effect; averaged blood pressure (SBP, MAP, DBP) (at 11 am and 11 pm as a function of ICU days with infusion, Fig. 10, 11): not significantly influenced; averaged heart rate (at 11 am and 11 pm as a function of ICU days with infusion, Fig. 14, 15): not influences; average temperatures (at 11 am during infusion, Fig. 16): not significantly influenced; averaged Angiotensin-(1-7) levels [1]: does not result in increased Ang-(1-7) levels
